For 25 compounds, IC50 results are on record in patent US10287301B2 (Achillion Pharmaceuticals, Inc., priority 2015, dated 2019).

Molecules are shown by their SMILES. Where only a bound is given, the exact number is not on record here.

Sequence of Human Factor D (P00746 26-253): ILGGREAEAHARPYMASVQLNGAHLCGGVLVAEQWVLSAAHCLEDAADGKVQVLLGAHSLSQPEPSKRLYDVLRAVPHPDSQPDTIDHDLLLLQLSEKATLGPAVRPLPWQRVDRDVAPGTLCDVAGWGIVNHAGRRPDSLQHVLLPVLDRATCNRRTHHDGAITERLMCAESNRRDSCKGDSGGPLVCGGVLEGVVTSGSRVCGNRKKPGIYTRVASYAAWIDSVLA

The first assay addresses Human Factor D (Homo sapiens (Human), UniProt P00746). The assay is described as follows: Human Factor D Assay. Format: biochemical.
Settings: not given
An outline of the steps: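 First, compound at various concentrations is mixed with 80 nM (final) human serum Factor D in 50 mM Tris, 1M NaCl, pH 7.5 for 5 min at room temperature.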
For `CC(=O)c1cn(CC(=O)N2C[C@H](F)C[C@H]2C(=O)Nc2cccc(-c3ccccc3Cl)c2Cl)c2ccc(-c3cnc(C)nc3)cc12` [Compound 149, (2S,4R)-1-(2-(3-acetyl-5-(2-methylpyrimidin-5-yl)-1H-indol-1-yl)acetyl)-N-(2,2′-dichlorobiphenyl-3-yl)-4-fluoropyrrolidine-2-carboxamide], the 50% inhibitory concentration (IC50) (commonly the concentration at which inhibition is half-maximal) was less than 1 µM.

Consider `CC(=O)c1cn(CC(=O)N2C[C@H](F)C[C@H]2C(=O)Nc2cc(O)ccn2)c2ccc(-c3ccnnc3)cc12` [Compound 177, (2S,4R)-1-(2-(3-acetyl-5-(pyridazin-4-yl)-1H-indol-1-yl)acetyl)-4-fluoro-N-(4-hydroxypyridin-2-yl)pyrrolidine-2-carboxamide], for which the IC50 fell in the range of 1 to 10 µM.

As for `NC(=O)c1nn(CC(=O)N2C[C@H](F)C[C@H]2C(=O)Nc2ncc(I)cn2)c2ccc(-c3ccnnc3)cc12` [Compound 179, 1-(2-((2S,4R)-4-fluoro-2-(5-iodopyrimidin-2-ylcarbamoyl)pyrrolidin-1-yl)-2-oxoethyl)-5-(pyridazin-4-yl)-1H-indazole-3-carboxamide], the IC50 fell in the range of 1 to 10 µM.

Staying with this assay, now noted: Human Factor D 80 nM, substrate Z-L-Lys-SBzl; read-out: IC50.
For the compound `CC(=O)c1cn(CC(=O)N2C[C@H](F)C[C@H]2C(=O)Nc2nc(-c3cccc(Cl)c3)ns2)c2ccc(-c3ccnnc3)cc12` [Compound 147, (2S,4R)-1-(2-(3-acetyl-5-(pyridazin-4-yl)-1H-indol-1-yl)acetyl)-N-(3-(3-chlorophenyl)-1,2,4-thiadiazol-5-yl)-4-fluoropyrrolidine-2-carboxamide], the IC50 was greater than 10 µM. With `CC(=O)c1cn(CC(=O)N2C[C@H](F)C[C@H]2C(=O)Nc2cccc(-c3cc(F)c(F)cc3Cl)c2F)c2ccc(-c3cnc(C)nc3)cc12` [Compound 150, (2S,4R)-1-(2-(3-acetyl-5-(2-methylpyrimidin-5-yl)-1H-indol-1-yl)acetyl)-N-(2′-chloro-2,4′,5′-trifluorobiphenyl-3-yl)-4-fluoropyrrolidine-2-carboxamide], the 50% inhibitory concentration (IC50) is less than 1 µM. For the compound `CC(=O)c1cn(CC(=O)N2C[C@H](F)C[C@H]2C(=O)Nc2cccc(-c3ccccc3Cl)c2F)c2ccc(-c3ccc(C)nc3)cc12` [Compound 151, (2S,4R)-1-(2-(3-acetyl-5-(6-methylpyridin-3-yl)-1H-indol-1-yl)acetyl)-N-(2′-chloro-2-fluorobiphenyl-3-yl)-4-fluoropyrrolidine-2-carboxamide], the IC50 is less than 1 µM.

In the case of `CC1Oc2cccc(NC(=O)[C@@H]3C[C@@H](F)CN3C(=O)Cn3nc(C(N)=O)c4cc(-c5ccnnc5)ccc43)c2NC1=O` (stereo partly drawn) [Compound 152, 1-(2-((2S,4R)-4-fluoro-2-(2-methyl-3-oxo-3,4-dihydro-2H-benzo[b][1,4]oxazin-5-ylcarbamoyl)pyrrolidin-1-yl)-2-oxoethyl)-5-(pyridazin-4-yl)-1H-indazole-3-carboxamide], the half-inhibitory concentration (IC50) was greater than 10 µM. Turning to `CC(=O)c1cn(CC(=O)N2C[C@H](F)C[C@H]2C(=O)Nc2cccc3c2NC(=O)C(C)O3)c2ccc(-c3ccnnc3)cc12` (stereo partly drawn) [Compound 153, (2S,4R)-1-(2-(3-acetyl-5-(pyridazin-4-yl)-1H-indol-1-yl)acetyl)-4-fluoro-N-(2-methyl-3-oxo-3,4-dihydro-2H-benzo[b][1,4]oxazin-5-yl)pyrrolidine-2-carboxamide], the half-maximal inhibitory concentration (IC50) is greater than 10 µM. Turning to `NC(=O)c1nn(CC(=O)N2C[C@H](F)C[C@H]2C(=O)Nc2cc(O)ccn2)c2ccc(-c3ccnnc3)cc12` [Compound 154, 1-(2-((2S,4R)-4-fluoro-2-(4-hydroxypyridin-2-ylcarbamoyl)pyrrolidin-1-yl)-2-oxoethyl)-5-(pyridazin-4-yl)-1H-indazole-3-carboxamide], the half-inhibitory concentration (IC50) was greater than 10 µM. Take `Cn1ccc(N2CCC(NC(=O)[C@@H]3C[C@@H](F)CN3C(=O)Cn3nc(C(N)=O)c4cc(-c5ccnnc5)ccc43)C2=O)n1` (stereo partly drawn) [Compound 155, 1-(2-((2S,4R)-4-fluoro-2-(1-(1-methyl-1H-pyrazol-3-yl)-2-oxopyrrolidin-3-ylcarbamoyl)pyrrolidin-1-yl)-2-oxoethyl)-5-(pyridazin-4-yl)-1H-indazole-3-carboxamide]: the IC50 was greater than 10 µM. Take `CC(=O)c1cn(CC(=O)N2C[C@H](F)C[C@H]2C(=O)Nc2c[nH]nc2-c2ccc(Cl)cc2Cl)c2ccc(-c3ccnnc3)cc12` [Compound 156, (2S,4R)-1-(2-(3-acetyl-5-(pyridazin-4-yl)-1H-indol-1-yl)acetyl)-N-(3-(2,4-dichlorophenyl)-1H-pyrazol-4-yl)-4-fluoropyrrolidine-2-carboxamide]: the concentration for half-maximal inhibition (IC50) is greater than 10 µM. Regarding `NC(=O)c1nn(CC(=O)N2C[C@H](F)C[C@H]2C(=O)NCc2ccncc2)c2ccc(-c3ccnnc3)cc12` [Compound 157, 1-(2-((2S,4R)-4-fluoro-2-(pyridin-4-ylmethylcarbamoyl)pyrrolidin-1-yl)-2-oxoethyl)-5-(pyridazin-4-yl)-1H-indazole-3-carboxamide], the IC50 was greater than 10 µM. As for `Cc1cc(NC(=O)[C@@H]2C[C@@H](F)CN2C(=O)Cn2nc(C(N)=O)c3cc(-c4ccnnc4)ccc32)n(-c2ccccc2F)n1` [Compound 158, 1-(2-((2S,4R)-4-fluoro-2-(1-(2-fluorophenyl)-3-methyl-1H-pyrazol-5-ylcarbamoyl)pyrrolidin-1-yl)-2-oxoethyl)-5-(pyridazin-4-yl)-1H-indazole-3-carboxamide], the IC50 is greater than 10 µM. In the case of `CC(=O)c1cn(CC(=O)N2C[C@@H](F)C[C@@H]2C(=O)NC2CCCN(c3ccccc3Cl)C2=O)c2ccc(-c3ccnnc3)cc12` (stereo partly drawn) [Compound 161, (2R,4S)-1-(2-(3-acetyl-5-(pyridazin-4-yl)-1H-indol-1-yl)acetyl)-N-(1-(2-chlorophenyl)-2-oxopiperidin-3-yl)-4-fluoropyrrolidine-2-carboxamide], the IC50 was less than 1 µM. Take `CC(=O)c1nn(CC(=O)N2C[C@H](F)C[C@H]2C(=O)Nc2cccc(-c3ccccc3Cl)c2F)c2ccc(-c3cnc(C)nc3)cc12` [Compound 163, (2S,4R)-1-(2-(3-acetyl-5-(2-methylpyrimidin-5-yl)-1H-indazol-1-yl)acetyl)-N-(2′-chloro-2-fluorobiphenyl-3-yl)-4-fluoropyrrolidine-2-carboxamide]: the IC50 is less than 1 µM. The same measure, in the same setting: as for `CC(=O)c1cn(CC(=O)N2C[C@H](F)C[C@H]2C(=O)Nc2cccc(-c3ncccc3Cl)c2F)c2ccc(-c3cnc(C)nc3)cc12` [Compound 164, (2S,4R)-1-(2-(3-acetyl-5-(2-methylpyrimidin-5-yl)-1H-indol-1-yl)acetyl)-N-(3-(3-chloropyridin-2-yl)-2-fluorophenyl)-4-fluoropyrrolidine-2-carboxamide], the figure is less than 1 µM; as for `NC(=O)c1nn(CC(=O)N2C[C@H](F)C[C@H]2C(=O)Nc2cc(=O)[nH]n2C2CCCCC2)c2ccc(-c3ccnnc3)cc12` [Compound 168, 1-(2-((2S,4R)-2-(2-cyclohexyl-5-oxo-2,5-dihydro-1H-pyrazol-3-ylcarbamoyl)-4-fluoropyrrolidin-1-yl)-2-oxoethyl)-5-(pyridazin-4-yl)-1H-indazole-3-carboxamide], greater than 10 µM.

Consider `CC(=O)c1cn(CC(=O)N2C[C@H](F)C[C@H]2C(=O)Nc2n[nH]c(C)c2-c2ccccc2)c2ccc(-c3ccnnc3)cc12` [Compound 169, (2S,4R)-1-(2-(3-acetyl-5-(pyridazin-4-yl)-1H-indol-1-yl)acetyl)-4-fluoro-N-(5-methyl-4-phenyl-1H-pyrazol-3-yl)pyrrolidine-2-carboxamide], for which the IC50 is less than 1 µM. With `NC(=O)c1nn(CC(=O)N2C[C@H](F)C[C@H]2C(=O)N[C@H]2CCCC[C@@H]2O)c2ccc(-c3ccnnc3)cc12` [Compound 172, 1-(2-((2S,4R)-4-fluoro-2-((1S,2S)-2-hydroxycyclohexylcarbamoyl)pyrrolidin-1-yl)-2-oxoethyl)-5-(pyridazin-4-yl)-1H-indazole-3-carboxamide], the 50% inhibitory concentration (IC50) is greater than 10 µM.

`CC(=O)c1cn(CC(=O)N2C[C@H](F)C[C@H]2C(=O)Nc2ccnc(=O)n2C)c2ccc(-c3ccnnc3)cc12` [Compound 173, (2S,4R)-1-(2-(3-acetyl-5-(pyridazin-4-yl)-1H-indol-1-yl)acetyl)-4-fluoro-N-(3-methyl-2-oxo-2,3-dihydropyrimidin-4-yl)pyrrolidine-2-carboxamide]: the half-inhibitory concentration (IC50) is greater than 10 µM. As for `NC(=O)c1nn(CC(=O)N2C[C@H](F)C[C@H]2C(=O)Nc2cccc(O)n2)c2ccc(-c3ccnnc3)cc12` [Compound 174, 1-(2-((2S,4R)-4-fluoro-2-(6-hydroxypyridin-2-ylcarbamoyl)pyrrolidin-1-yl)-2-oxoethyl)-5-(pyridazin-4-yl)-1H-indazole-3-carboxamide], the IC50 was greater than 10 µM. As for `CC(=O)c1cn(CC(=O)N2C[C@H](F)C[C@H]2C(=O)Nc2ccc(O)cn2)c2ccc(-c3ccnnc3)cc12` [Compound 175, (2S,4R)-1-(2-(3-acetyl-5-(pyridazin-4-yl)-1H-indol-1-yl)acetyl)-4-fluoro-N-(5-hydroxypyridin-2-yl)pyrrolidine-2-carboxamide], the half-maximal inhibitory concentration (IC50) was greater than 10 µM. For the compound `NC(=O)c1nn(CC(=O)N2C[C@H](F)C[C@H]2C(=O)Nc2ccc(O)cn2)c2ccc(-c3ccnnc3)cc12` [Compound 176, 1-(2-((2S,4R)-4-fluoro-2-(5-hydroxypyridin-2-ylcarbamoyl)pyrrolidin-1-yl)-2-oxoethyl)-5-(pyridazin-4-yl)-1H-indazole-3-carboxamide], the half-inhibitory concentration (IC50) was greater than 10 µM. Take `NC(=O)c1nn(CC(=O)N2C[C@H](F)C[C@H]2C(=O)Nc2nccc(Cl)n2)c2ccc(-c3ccnnc3)cc12` [Compound 178, 1-(2-((2S,4R)-2-(4-chloropyrimidin-2-ylcarbamoyl)-4-fluoropyrrolidin-1-yl)-2-oxoethyl)-5-(pyridazin-4-yl)-1H-indazole-3-carboxamide]: the IC50 is greater than 10 µM. With `CC(=O)c1cn(CC(=O)N2C[C@H](F)C[C@H]2C(=O)Nc2nccc(Cl)n2)c2ccc(-c3ccnnc3)cc12` [Compound 180, (2S,4R)-1-(2-(3-acetyl-5-(pyridazin-4-yl)-1H-indol-1-yl)acetyl)-N-(4-chloropyrimidin-2-yl)-4-fluoropyrrolidine-2-carboxamide], the half-inhibitory concentration (IC50) is greater than 10 µM.
